This is an account of results in PubChem BioAssay AID1845228.

The Papp is the rate of passage across a membrane or cell layer, normalised by area and donor concentration.

The conditions of this data set: pampa; 60.0 min; 50.0 µM.
`CC(Oc1ccccc1)C(=O)N[C@@H]1C(=O)N2[C@@H]1SC(C)(C)[C@@H]2C(=O)O` (stereo not given in full) returned a Papp of 25 ×10⁻⁶ cm/s. The compound `CN(CCCCCCN(C)C(=O)Oc1ccc[n+](C)c1)C(=O)Oc1ccc[n+](C)c1` showed an apparent permeability (Papp) of less than 1 ×10⁻⁶ cm/s. `Cc1ccc(NC(=O)c2ccc(CN3CCNCC3)cc2)cc1Nc1nccc(-c2cccnc2)n1` registered a Papp of 19 ×10⁻⁶ cm/s. As to `CC(/C=C/[C@@H]1C[C@]1(C)c1ccc2c(c1)C(C)(C)CCC2(C)C)=C\C(=O)O`, the apparent permeability coefficient (Papp) was 63 ×10⁻⁶ cm/s. Next, `COc1cccc2c1C(=O)c1c(O)c3c(c(O)c1C2=O)C[C@@](O)(C(C)=O)C[C@@H]3O[C@H]1C[C@H](N)[C@H](O)[C@H](C)O1`: 8 ×10⁻⁶ cm/s; `O=C(NCCCN1CCCC1=O)c1ccc(-c2ncc3cnc(-c4ccccc4)cn23)cc1`: 31 ×10⁻⁶ cm/s; `COc1ccc(-c2c(Cl)ncn2-c2ccc(S(N)(=O)=O)cc2)cc1F`: 78 ×10⁻⁶ cm/s. Next, `Oc1ccc2nc(CN3CCC(Cc4ccccc4F)CC3)[nH]c2c1`: 107 ×10⁻⁶ cm/s; `NC(=O)c1ccc(-c2ncc3cnc(-c4cccc(F)c4)cn23)cc1`: 242 ×10⁻⁶ cm/s; `N#Cc1cccc(-c2nc(-c3cccnc3)no2)c1`: 150 ×10⁻⁶ cm/s. `CNCCC=C1c2ccccc2CCc2ccccc21`: the Papp worked out at 253 ×10⁻⁶ cm/s. `COCCN(C)Cc1ccc2nc3sc(C(=O)N(C)C4CCCCC4)cn3c2c1` came in with a Papp of 79 ×10⁻⁶ cm/s.

`COCC1=C(C(=O)O)N2C(=O)[C@@H](NC(=O)/C(=N\OC)c3csc(N)n3)[C@H]2SC1`: the Papp is less than 1 ×10⁻⁶ cm/s.

As for `CN1CCN(C(=O)Cc2c[nH]c3ncc(-c4ccccc4Oc4ccccc4)cc23)CC1`, the Papp worked out at 299 ×10⁻⁶ cm/s. Next, `O=C(O)Cc1ccc2c(c1)C(=O)c1ccccc1CO2`: less than 1 ×10⁻⁶ cm/s. The compound `COc1ccc(Cn2c(-c3ccccc3)c(-c3ccccc3)c3c(=N)n(CCCCCO)cnc32)cc1` gave a Papp of 206 ×10⁻⁶ cm/s. `Nc1c(C(=O)Nc2ccc(Cl)c(C(F)(F)F)c2)sc2nc3c(cc12)N1CCC3CC1`: the Papp is 213 ×10⁻⁶ cm/s.

In turn, `Cn1cc(C2=C(c3coc4ccccc34)C(=O)NC2=O)c2cc(Br)ccc21` displayed a Papp of 3 ×10⁻⁶ cm/s. With `COc1ccccc1NC(=O)C1=C(C)Nc2c(C(=O)Nc3ccc(F)cc3)cnn2C1c1ccc(Cl)cc1` (stereo not given), the apparent permeability coefficient (Papp) was less than 1 ×10⁻⁶ cm/s.

`Cc1cccc(C#Cc2cc(F)cc(C#N)c2)n1` registered a Papp of 209 ×10⁻⁶ cm/s. Take `O=C(O)C1CCc2cc(C3CCCCC3)c(Cl)cc21` (stereo not given): the Papp was determined as 61 ×10⁻⁶ cm/s. In turn, `N#Cc1cccc(NC(=O)c2sc3nc4c(cc3c2N)N2CCC4CC2)c1` had a Papp of 142 ×10⁻⁶ cm/s. Next, `CSCC[C@H](NC(=O)[C@H](Cc1ccccc1)NC(=O)CNC(=O)CNC(=O)[C@@H](N)Cc1ccc(O)cc1)C(=O)O`: less than 1 ×10⁻⁶ cm/s. Next, `COc1cccc(-c2csc3ncnc(Sc4nnnn4C)c23)c1`: 219 ×10⁻⁶ cm/s.

For `C[N+](C)([O-])CCNc1ccc(NCC[N+](C)(C)[O-])c2c1C(=O)c1c(O)ccc(O)c1C2=O`, the Papp was 40 ×10⁻⁶ cm/s. The same measure for `CCCCCCCCCC(=O)O[C@H]1CC[C@H]2[C@@H]3CCC4=CC(=O)CC[C@@H]4[C@H]3CC[C@]12C`: less than 1 ×10⁻⁶ cm/s.

Compound `CC(=O)Nc1ccc(C(=O)NC(C)(C)C)cc1` had a Papp of 2 ×10⁻⁶ cm/s. The same measure for `N=c1c2c(-c3ccccc3)c(-c3ccccc3)n(Cc3ccccc3)c2ncn1C1CCC(O)CC1` (stereo not given): 150 ×10⁻⁶ cm/s; for `NC(=O)C1=C(O)[C@@]2(O)C(=O)C3=C(O)c4c(O)cccc4C[C@H]3C[C@H]2CC1=O`: 9 ×10⁻⁶ cm/s; for `CC(=O)OCC1=C(C(=O)O)N2C(=O)C(NC(=O)CCCC(N)C(=O)O)C2SC1` (stereo not given): 2 ×10⁻⁶ cm/s.

For the compound `CCc1ccc(C2C(C(=O)Nc3ccccc3OC)=C(C)Nc3c(C(=O)Nc4ccc(C)cc4)cnn32)cc1` (stereo not given), the Papp is 26 ×10⁻⁶ cm/s. Next, `N=c1c2c(-c3ccccc3)cn(Cc3ccccc3)c2ncn1[C@@H]1CCCC[C@H]1N`: 101 ×10⁻⁶ cm/s; `N=c1c2c(-c3ccccc3)c(-c3ccccc3)n(CCc3ccccc3)c2ncn1CCCCO`: 218 ×10⁻⁶ cm/s. Next, `Cn1nnnc1Sc1ncnc2scc(-c3cccc4c3sc3ccccc34)c12`: 12 ×10⁻⁶ cm/s. Next, `CC(C)(C)c1ccc2c(c1)CC[C@H]2NC(=O)Nc1cccc2[nH]ncc12`: less than 1 ×10⁻⁶ cm/s.
